Test system: regulatory T-cells (CD3+, CD4+, CD25+, FOXp3+)
Experiment: Regulatory T-cells in blood of rats dosed by oral gavage for 42 days (flow cytometry)
Format: in vivo, Sprague-Dawley rats
Conditions: for Treg % Gated, percent change relative to pretest means: rat
Procedure: Sprague-Dawley rats (CD®[Crl:CD®(SD)] were administered 2-deoxy-2-fluoro-L-fucose by oral gavage daily for 42 consecutive days at doses of 0, 125, 500 or 2000 mg/kg/day. Blood samples (0.4 mL/timepoint) were collected in sodium heparin at pretest and days 2, 7, 22, 43, 49, 56, and 71 of the study. Samples were processed within 24 hours of collection. Aliquots of the specimens were stained with predetermined volumes of previously tested and titered monoclonal antibodies specific for each marker. The red cells in each tube were lysed and after staining the cells were fixed with Versalyse Lysis Buffer solution (Beckman Coulter). The prepared specimens were analyzed on a Beckman-Coulter FC 500 MPL flow cytometer.

SMILES: C[C@@H]1OC(O)[C@@H](F)[C@H](O)[C@@H]1O (stereo partly drawn) [2-deoxy-2-fluoro-L-fucose]
- Treg % Gated, percent change relative to pretest means (F, 125 mg/kg/day oral gavage, Day 2): −54%
- Treg % Gated, percent change relative to pretest means (F, 125 mg/kg/day oral gavage, Day 7): −67%
- Treg % Gated, percent change relative to pretest means (F, 125 mg/kg/day oral gavage, Day 22): −61%
- Treg % Gated, percent change relative to pretest means (F, 125 mg/kg/day oral gavage, Day 43): −64%
- Treg % Gated, percent change relative to pretest means (F, 125 mg/kg/day oral gavage, Day 49, recovery period): −40%
- Treg % Gated, percent change relative to pretest means (F, 125 mg/kg/day oral gavage, Day 56, recovery period): −51%
- Treg % Gated, percent change relative to pretest means (F, 125 mg/kg/day oral gavage, Day 71, recovery period): −45%
- Treg % Gated, percent change relative to pretest means (F, 500 mg/kg/day oral gavage, Day 2): −56%
- Treg % Gated, percent change relative to pretest means (F, 500 mg/kg/day oral gavage, Day 7): −60%
- Treg % Gated, percent change relative to pretest means (F, 500 mg/kg/day oral gavage, Day 22): −60%
- Treg % Gated, percent change relative to pretest means (F, 500 mg/kg/day oral gavage, Day 43): −50%
- Treg % Gated, percent change relative to pretest means (F, 500 mg/kg/day oral gavage, Day 49, recovery period): −43%
- Treg % Gated, percent change relative to pretest means (F, 500 mg/kg/day oral gavage, Day 56, recovery period): −38%
- Treg % Gated, percent change relative to pretest means (F, 500 mg/kg/day oral gavage, Day 71, recovery period): −40%
- Treg % Gated, percent change relative to pretest means (F, 2000 mg/kg/day oral gavage, Day 2): −41%
- Treg % Gated, percent change relative to pretest means (F, 2000 mg/kg/day oral gavage, Day 7): −39%
- Treg % Gated, percent change relative to pretest means (F, 2000 mg/kg/day oral gavage, Day 22): −43%
- Treg % Gated, percent change relative to pretest means (F, 2000 mg/kg/day oral gavage, Day 43): −28%
- Treg % Gated, percent change relative to pretest means (F, 2000 mg/kg/day oral gavage, Day 49, recovery period): −19%
- Treg % Gated, percent change relative to pretest means (F, 2000 mg/kg/day oral gavage, Day 56, recovery period): −16%
- Treg % Gated, percent change relative to pretest means (F, 2000 mg/kg/day oral gavage, Day 71, recovery period): −26%
- Treg % Gated, percent change relative to pretest means (M, 125 mg/kg/day oral gavage, Day 2): −44%
- Treg % Gated, percent change relative to pretest means (M, 125 mg/kg/day oral gavage, Day 7): −64%
- Treg % Gated, percent change relative to pretest means (M, 125 mg/kg/day oral gavage, Day 22): −65%
- Treg % Gated, percent change relative to pretest means (M, 125 mg/kg/day oral gavage, Day 43): −59%
- Treg % Gated, percent change relative to pretest means (M, 125 mg/kg/day oral gavage, Day 49, recovery period): −46%
- Treg % Gated, percent change relative to pretest means (M, 125 mg/kg/day oral gavage, Day 56, recovery period): −47%
- Treg % Gated, percent change relative to pretest means (M, 125 mg/kg/day oral gavage, Day 71, recovery period): −42%
- Treg % Gated, percent change relative to pretest means (M, 500 mg/kg/day oral gavage, Day 2): −61%
- Treg % Gated, percent change relative to pretest means (M, 500 mg/kg/day oral gavage, Day 7): −63%
- Treg % Gated, percent change relative to pretest means (M, 500 mg/kg/day oral gavage, Day 22): −64%
- Treg % Gated, percent change relative to pretest means (M, 500 mg/kg/day oral gavage, Day 43): −58%
- Treg % Gated, percent change relative to pretest means (M, 500 mg/kg/day oral gavage, Day 49, recovery period): −48%
- Treg % Gated, percent change relative to pretest means (M, 500 mg/kg/day oral gavage, Day 56, recovery period): −47%
- Treg % Gated, percent change relative to pretest means (M, 500 mg/kg/day oral gavage, Day 71, recovery period): −48%
- Treg % Gated, percent change relative to pretest means (M, 2000 mg/kg/day oral gavage, Day 2): −42%
- Treg % Gated, percent change relative to pretest means (M, 2000 mg/kg/day oral gavage, Day 7): −43%
- Treg % Gated, percent change relative to pretest means (M, 2000 mg/kg/day oral gavage, Day 22): −51%
- Treg % Gated, percent change relative to pretest means (M, 2000 mg/kg/day oral gavage, Day 43): −29%
- Treg % Gated, percent change relative to pretest means (M, 2000 mg/kg/day oral gavage, Day 49, recovery period): −6%
- Treg % Gated, percent change relative to pretest means (M, 2000 mg/kg/day oral gavage, Day 56, recovery period): −12%
- Treg % Gated, percent change relative to pretest means (M, 2000 mg/kg/day oral gavage, Day 71, recovery period): −13%
- relative proportion of regulatory T-cells (CD3+, CD4+, CD25+, FOXp3+) relative to pretest values (rats, all dosed groups (125, 500, 2000 mg/kg/day), beginning at Day 2): tended to decrease

Source: patent US20180353524A1, “CANCER TREATMENT USING 2-DEOXY-2-FLUORO-L-FUCOSE IN COMBINATION WITH A CHECKPOINT INHIBITOR” (SEATTLE GENETICS, INC., priority 2015, published 2018)
